Reference: publication PMC9061999, “Application of the Adverse Outcome Pathway Concept to In Vitro Nephrotoxicity Assessment: Kidney Injury due to Receptor-Mediated Endocytosis and Lysosomal Overload as a Case Study” (Frontiers in Toxicology, 2022)

Tested on: RPTEC/TERT1 cells
Test: LAMP-2 immunofluorescence (KE1, disturbance of lysosomal function)
Type: cell-based, human
Details: for BMC10, KE1: in vitro POD from KE dose-response, LAMP-2 intensity, RPTEC/TERT1, 24 h treatment, n = 3 independent experiments; for MOE, lowest across KEs: in vitro PODs in RPTEC/TERT1 vs human plasma concentrations at therapeutic doses; for MOE, KE1: margin of exposure: BMC10 in RPTEC/TERT1 vs human plasma/serum concentration (cmax or css)
Protocol: For immunocytochemistry experiments, cells were seeded into 8-well chamber slides (Ibidi) at a density of 140 cells per µL in 300 µL growth medium and were allowed to grow for 48 h (NRK-52E) or 10 d (RPTEC/TERT1) respectively. For treatment, stock solutions (1,000 µM) of compounds dissolved in growth medium were freshly prepared and serial dilutions were made before exposure of cells for 24 h. After treatment, cells were washed twice with 150 µL PBS and fixed with 150 µL 4% paraformaldehyde in 1 x PBS for 10 min at room temperature. After fixation, cells were washed 10 min with 150 µL PBS on an orbital shaker followed by permeabilization with 150 µL 0.2% Triton X-100 in 1 x PBS for 5 min at room temperature on an orbital shaker. The permeabilized cells were washed twice with 1 x PBS (150 µL) for 10 min at room temperature on an orbital shaker and then incubated with 150 µL 5% BSA dissolved in 1 x PBS for 1 h at room temperature to block unspecific binding sites. After blocking, 100 µL primary antibody diluted 1:100 in 1% BSA in 1 x PBS were directly pipetted onto the cells and incubated overnight at 4°C. The following antibodies were employed for NRK-52E cells: Anti-LAMP-1 monoclonal IgG1 kappa mouse antibody (Santa Cruz; sc-20011), anti-Cathepsin D mouse monoclonal IgG2 kappa antibody (Santa Cruz; sc-377124); for RPTEC/TERT1 cells: Anti-LAMP-2 monoclonal mouse antibody (Santa Cruz; sc-18822), anti-Cathepsin D mouse monoclonal IgG2b kappa (Novus Biologicals; NBP1-04278); for both cell lines anti-megalin mouse monoclonal IgG1 antibody (Santa Cruz, sc-515772).
After incubation with primary antibody, cells were washed three times for 15 min with 0.2% Tween in 1 x PBS (150 µL) on an orbital shaker. Cells were incubated for 1 h at room temperature with 100 µL CFL 488-conjugated mouse IgG kappa binding protein (1:50) (m-IgGκ BP-CFL 488; Santa Cruz, sc-516176). After incubation the cells were washed three times for 15 min with 0.2% Tween in 1 x PBS on an orbital shaker and once with 150 µL sterile water. Phalloidin-tetramethylrhodamine B isothiocyanate (TRITC) was used to stain the cytoskeleton and was diluted in 100% methanol to a stock concentration of 0.1 mg/ml and further diluted in 1 x PBS to a working concentration of 0.095 µM. After cells were washed once with 1 x PBS for 10 min at room temperature 150 µL phalloidin-TRITC working solution was added and the cells were incubated on an orbital shaker at room temperature for 60–90 min. After incubation, phalloidin-TRITC solution was aspirated, and the cells were washed once with 1 x PBS. Chamber slides were allowed to dry for 15 min at room temperature. To preserve fluorescence 50–100 µL DAPI mounting medium (Vectashield®; Vectorlab, Biozol) was added to the cells and chamber slides were stored at 4°C in the dark until image acquisition.
Images were taken with a TCS SP5 II confocal microscope with an HCX PL APO lambda blue 63.0 × 1.40 OIL UV objective (Leica Microsystems, Wetzlar, GER) (n = 10 cells/treatment group). The maximum excitation and emission settings for image acquisition were the following: Vectashield® antifade mounting medium with DAPI (λex 360 nm & λem 460 nm), for CFL 488-conjugated mouse IgG kappa binding protein (λex 490 nm & λem 525 nm) and phalloidin-TRITC (λex 545 nm & λem 573 nm). Before quantification, images were blinded and randomized. Quantification of fluorescence intensity was performed using NIH Image® software. Using the tool “Plot Profile” we generated a two-dimensional graph of the intensity of pixels along a reference line (6.35 µm) drawn across the cytoplasm of cells. The mean values of the pixel intensities were automatically calculated by the software and imported in Excel for further processing.

For Colistin, the “BMC10, KE1” value was 4.3 µM, the “MOE, lowest across KEs” value was 0.5 and the “MOE, KE1” value was 0.5 – 10.2.
Polymyxin B was tested, and the “BMC10, KE1” value was 4.2 µM, the “MOE, lowest across KEs” value was 1 and the “MOE, KE1” value was 1.0 - 7.4.
